From patent publication US20230398125A1, “TREATING HEPATITIS” (Albireo AB, priority 2022, published 2023) come the findings set out here.

Data set [1] in a line: Plasma concentrations of Compound 2 in non-human primates. The data set is classed as in vivo. To be noted: NHPs, 3-30 mg/kg oral once daily for 5 days. As for the experimental part:
(§1) NTCP and the related BA transporter apical sodium-dependent BA transporter (ASBT) from human were expressed in cell lines. Inhibition by Compound 2 was studied using [^3]taurocholate as substrate. Cryopreserved human hepatocytes infected with a clinical isolate of HBV were used for infection experiments. Two female non-human primates (NHPs) were dosed with Compound 2 via oral gavage at dose levels of Compound 2 ranging between 3-30 mg/kg once daily for 5 days. Total serum, urine, and fecal BAs were analyzed enzymatically and Compound 2 plasma concentrations were assessed via liquid chromatography-tandem mass spectrometry. The oral pharmacokinetics of Compound 2 was also studied in mice, rats, and dogs.

Data set [2] can be described thus: Oral pharmacokinetics of Compound 2 in mice, rats and dogs. To be noted: across all species. Type of data set: in vivo. How it is done:
as §1

The subject of a further data set is HBV (clinical isolate). Put plainly: HBV infection of cryopreserved human hepatocytes (Compound 2). Type of data set: cell-based. To be noted: Hepatitis B virus, Hepatocyte. As for the experimental part: as §1
The next data set relates to human hepatocytes. Put plainly: Cell viability of human hepatocytes (Compound 2). Type of data set: cell-based.
A short description of data set [3]: Serum, urine and fecal bile acids and C4 in non-human primates after oral dosing. The data set is classed as in vivo. To be noted: NHPs. How it is done:
as §1

The target in a further data set is T1, ASBT (Homo sapiens, UniProt Q12908).
T1 construct: expressed in transfected cells
T1 sequence (Q12908 1-348): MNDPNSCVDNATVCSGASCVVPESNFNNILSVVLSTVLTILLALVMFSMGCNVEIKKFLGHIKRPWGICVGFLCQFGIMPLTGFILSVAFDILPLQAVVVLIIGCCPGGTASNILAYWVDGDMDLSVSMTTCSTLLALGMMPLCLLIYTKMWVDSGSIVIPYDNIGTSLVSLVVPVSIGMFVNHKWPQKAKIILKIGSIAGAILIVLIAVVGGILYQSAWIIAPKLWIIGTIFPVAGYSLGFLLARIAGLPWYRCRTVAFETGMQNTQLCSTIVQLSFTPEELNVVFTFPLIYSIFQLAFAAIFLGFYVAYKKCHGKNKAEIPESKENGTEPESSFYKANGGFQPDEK
Put plainly: [3H]taurocholate uptake in cell lines expressing human ASBT (Compound 2). Type of data set: cell-based. As for the experimental part: as §1

The target in a further data set is T2, Human NTCP (Homo sapiens, UniProt Q14973).
T2 construct: expressed in transfected cells; peptide purchased from Pharmaron
T2 sequence (Q14973 1-349): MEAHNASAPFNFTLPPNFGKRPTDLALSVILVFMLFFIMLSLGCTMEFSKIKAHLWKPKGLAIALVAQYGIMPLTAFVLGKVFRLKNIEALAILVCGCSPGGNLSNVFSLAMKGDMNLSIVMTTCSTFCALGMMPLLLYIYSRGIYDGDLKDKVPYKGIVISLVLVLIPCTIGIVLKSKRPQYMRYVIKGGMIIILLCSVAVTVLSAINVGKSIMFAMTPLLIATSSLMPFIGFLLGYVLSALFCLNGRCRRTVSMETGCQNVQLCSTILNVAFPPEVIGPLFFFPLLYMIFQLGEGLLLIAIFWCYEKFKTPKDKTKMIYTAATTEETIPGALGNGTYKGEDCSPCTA
Put plainly: [3H]taurocholate uptake in cell lines expressing human NTCP (Compound 2). Type of data set: cell-based. How it is done:
as §1

A short description of data set [4]: XTT cell toxicity in primary human hepatocytes. Type of data set: cell-based. To be noted: human, primary human hepatocytes, read-out: TC50. As for the experimental part:
Multiplicity of Infection (MOI) is defined as the number of HBV genome equivalents, as determined by the qPCR quantitation, added per cell in the respective growth format. The overnight media was removed from the cells and replaced with 190 μL of new, serum-free HI media/4% PEG8000 and 10 μL of the diluted virus stock (HepG2 AD38 genotype D) for a MOI of 500. Medium alone was added to the cells containing compound for the parallel cytotoxicity evaluation. After 18 hours of virus infection, the cells were gently washed five times with DPBS, followed by a new addition of 200 μL HI media containing compounds on day 1, day 4 and day 7 post-infection. In one set of experiments (Study #01), the effect of giving compound 18 h prior to infection, versus 18 h post-infection was studied. The supernatant removed from the cytotoxicity plates at each medium change was stored at −20° C. for shipment to the client. The supernatant was collected at 10 days post infection and stored at −20° C. for total extracellular HBV DNA copy number to be quantitatively determined by qPCR. Cell viability was measured by XTT tetrazolium dye at day 10 for the cytotoxicity plates.
Following incubation at 37° C. in a 5% CO2 incubator for ten days, the test plates were stained with the tetrazolium dye XTT (2,3-bis(2-methoxy-4-nitro-5-sulfophenyl}-5-[(phenylamino)carbonyl]-2H-tetrazolium hydroxide). XTT-tetrazolium was metabolized by the mitochondrial enzymes of metabolically active cells to a soluble formazan product. XTT solution was prepared daily as a stock of 1 mg/mL in RPMI1640. Phenazine methosulfate (PMS) solution was prepared at 0.15 mg/mL in PBS and stored in the dark at −20° C.
XTT/PMS stock was prepared immediately before use by adding 40 μL of PMS per mL of XTT solution. Fifty microliters of XTT/PMS were added to each well of the plate and the plate was re-incubated for 4 hours at 37° C. Plates were sealed with adhesive plate sealers and shaken gently or inverted several times to mix the soluble formazan product and the plate was read spectrophotometrically at 450/650 nm with a Molecular Devices Vmax plate reader.
Each concentration of inhibitor and controls were analyzed in triplicate for HBV DNA copies and for cellular toxicity, respectively. From control wells without inhibitor, the mean of these three replicates was calculated and the HBV DNA mean was set to 100% viral control and the XTT mean was set to 100% cell viability. The effect of compound was then expressed as % of viral control and % cell viability, respectively.
In general terms: Tetrazolium dyes change colour on reduction, which living cells bring about.

Data set [5] relates to HBV (HepG2 AD38 genotype D). Put plainly: HBV infection of primary human hepatocytes, extracellular HBV DNA by qPCR. To be noted: for EC50: Hepatitis B virus, read-out: EC50. The data set is classed as cell-based, hepatitis B virus.

Where a name gives a salt, the structure may show the parent alone. Read-outs that look alike come from different tables or passages of the source.

On to `CCCCC1CN(c2ccc(F)cc2)c2cc(SC)c(OCC(C)(C)C(=O)O)cc2S(=O)(=O)N1C` (stereo not drawn) [Compound 2, 3-((3-butyl-5-(4-fluorophenyl)-2-methyl-7-(methylthio)-1,1-dioxido-2,3,4,5-tetrahydro-1,2,5-benzothiadiazepin-8-yl)oxy)-2,2-dimethylpropanoic acid], for which the “plasma exposure versus dose” value in data set [1] is reported as “increased with dose”. Moreover, in data set [2], the oral bioavailability result is given as “Good oral bioavailability”. Further, the half-inhibitory concentration (IC50) in the data set with HBV (clinical isolate) amounted to 13.5 nM; at ASBT, 193 nM; at Human NTCP, 3.4 nM. The “effect on cell viability” value in the data set on human hepatocytes is “without affecting cell viability”. The “levels of fecal BAs” value in data set [3] is given as “did not change”. In addition, in [3], the “urine excretion of BAs compared with vehicle” value is given as “tended to increase”. Moreover, the “serum BAs at 24 hours post-dose” value in data set [3] (10 mg/kg) is given as “returned to baseline”; in [3] (30 mg/kg), “still being elevated”. For the same molecule, the “duration of increases in serum BAs” value in data set [3] (10 and 30 mg/kg, Day 1 and Day 5) was “at least 8 hours”. Further, the “levels of 7-alpha-hydroxy-4-cholesten-3-one (C4)” value in data set [3] (after 5 days of repeated dosing) is reported as “did not change”. The “serum BAs” value in data set [3] (oral dosing, Day 1 and Day 5) is listed as “increased in a dose-dependent manner”.

Take `CC(C)OC(=O)OCOP(=O)(CO[C@H](C)Cn1cnc2c(N)ncnc21)OCOC(=O)OC(C)C` [Tenofovir disoproxil fumarate, reference compound]: the CC50 at 10 days was above 1000 nM in data set [4] (Study #01, 18 h post-infection section); above 1000 nM in [4] (Study #01, XTT, PHH); above 100 nM in data set [4] (Study #02); above 100 nM in [4] (Study #03). For the same molecule, the EC50 in data set [5] (HepG2, 18 h, Study #01, compound given 18 h post-infection) was 20 nM; in data set [5] (HepG2, Study #01, compound given 18 h prior to infection, PHH, HBV DNA) it was 43 nM; in [5] (HepG2, Study #02, PHH), 64 nM; in data set [5] (HepG2, Study #03, PHH) it was 59 nM. For the same molecule, in data set [5] (Study #01), the “antiviral activity/potency when given 18 h post-infection” value is “maintained”. In addition, the Max inhibition was 97% in data set [5] (Study #01, 18 h post-infection); 96% in data set [5] (Study #01, 18 h prior to infection); 68% in data set [5] (Study #02); 61% in data set [5] (Study #03); around 60% in [5] (Study #03, listed as tenofovir).

Broadly, the IC50 is the concentration that inhibits the measured activity by half. Read a high IC50 as a need for much substance. One may read the EC50 as the concentration giving half of the maximal effect.
